Paper PMC11756396 (Nature Communications, 2025)

Legend:
HLA-A3 [1] = molecular target: T1, HLA-A3 (Homo sapiens, UniProt P04439); assay: Peptide dissociation from HLA-A3 by fluorescence anisotropy; format: binding
T1 construct: the extracellular domain of the MHC heavy chain, β2-microglobulin, TCR α and β chains; made in house

HLA-A3 [2] = molecular target: T1, HLA-A3; assay: 19F NMR of 5F-Trp-substituted peptide/HLA-A3; conditions: 5F-Trp6, 0.3 mM complex, pH 7.4, 5 °C
Description: ^19F NMR spectra were recorded using a Bruker 600 MHz NMR instrument with a QCI cryogenic probe at NMRFAM, University of Wisconsin-Madison. All proteins were solubilized in 10 mM HEPES, 150 mM NaCl, pH 7.4 with 10% D2O (Cambridge Isotope Laboratories DLM-4-25).
NMR probe temperature was maintained at a calibrated value of 5.2 °C. […] To improve the signal/noise ratio, we compared ^19F 1D spectra recorded with and without proton decoupling. Decoupling caused a noticeable reduction of the signal intensity of the ^19F nuclear spin in the context of the complexes; therefore, all spectra were collected un-decoupled to maximize sensitivity. The reference frequency of the ^19F channel was set through internal routines of the Topspin acquisition software after the spectrometer was locked on D2O. The recycle delay was optimized to find the best compromise between the longitudinal relaxation and the repetition rate for signal averaging. The optimal values of D1 = 0.4 s and AQ = 0.59 s were used in all experiments. One-dimensional fluorine experiments were recorded with the pulse program zgflqn.F from the standard Bruker library with TD1 = 134,078 points and a spectral width (SW) of 200 ppm. […] The 4 h data blocks were checked individually for a possible frequency drift (which was not detected) and added to obtain combined datasets with improved signal/noise ratio. […]

HLA-A3 [3] = molecular target: T1, HLA-A3; conditions: PIK3CA–HLA-A3 complex; quoted in peer review; cited from earlier work
HLA-A3 [4] = molecular target: T1, HLA-A3; set-up: method as in 2 sources, one per row (each row's own in cited_ref): ref 15 (a number printed in a supplementary file, which may have a reference list of its own: not looked up in the article's list) ||| ref 10, ref 15; conditions: cited from earlier work
T cells = conditions: high, supraphysiological concentrations; cited from earlier work
[5] = system: TCR4-expressing T cells co-cultured with HLA-A3+ antigen presenting cells (Cos-7); assay: TNFα production by TCR4-transduced T cells (intracellular cytokine staining); conditions: Conc. 100 (unit not given), mean of three replicates
[6] = system: TCR3-expressing T cells co-cultured with HLA-A3+ antigen presenting cells (Cos-7); assay: TNFα production by TCR3-transduced T cells (intracellular cytokine staining); conditions: Conc. 100 (unit not given), mean of three replicates
[7] = system: TCR4-expressing T cells co-cultured with HLA-A3+ antigen presenting cells (Cos-7); assay: CD107a degranulation of TCR4-transduced T cells, peptide-pulsed HLA-A3+ APC (flow cytometry); conditions: for CD107a, absolute frequency: TCR4, 6 h co-culture, E:T 1:1, mean of three replicates
Description: TCR-T cells were utilized for downstream functional analysis at days 5–8 post transduction.
Cos-7 cells were electroporated with 100 μg/mL of HLA-A*03:01 mRNA and plated into 96-well round-bottom plates overnight. […] Cells were washed with 1× PBS to remove any unbound peptide. […] Cells were washed again with PBS and then fixed and permeabilized for 15 min at 4 °C. […] All antibodies were used at a final concentration of 5 μg/mL. Finally, cells were washed with perm-wash buffer, suspended in 2% FBS in PBS, and data acquired on an X20 LSR Fortessa flow cytometer with the BD FACSDiva software.

T1 sequence (P04439 25-308 limits assumed): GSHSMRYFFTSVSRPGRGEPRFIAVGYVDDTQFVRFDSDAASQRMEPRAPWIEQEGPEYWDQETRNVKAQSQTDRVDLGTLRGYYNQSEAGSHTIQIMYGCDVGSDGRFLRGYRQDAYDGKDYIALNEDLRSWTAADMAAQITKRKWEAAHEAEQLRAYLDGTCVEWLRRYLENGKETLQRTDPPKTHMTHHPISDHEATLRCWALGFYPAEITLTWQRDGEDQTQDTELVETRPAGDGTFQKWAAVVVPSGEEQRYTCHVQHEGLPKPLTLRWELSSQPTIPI
T1 sequence (P61769 21-119 partner): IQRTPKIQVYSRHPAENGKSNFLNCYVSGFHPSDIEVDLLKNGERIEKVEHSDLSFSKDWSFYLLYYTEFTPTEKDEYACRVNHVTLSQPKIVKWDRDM

AHHGGWTTK [WT peptide]
peptide/HLA-A3 dissociation in words (HLA-A3 [1]; 4 °C, 100 nM fluorescein-labeled peptide/HLA-A3, 100 μM unlabeled peptide, pH 7.4): only a small amount of dissociation observed over an extended period
peptide/HLA-A3 stability in words (HLA-A3 [1]; 37 °C and 25 °C, 100 nM fluorescein-labeled peptide/HLA-A3, pH 7.4): less stable at 37 °C and 25 °C
share of remaining 19F population (HLA-A3 [2]; broad peak at –[…]): roughly 50%
share of total 19F signal (HLA-A3 [2]; sharp peak at –125.12 ppm (degradation)): about 19%
melting temperature (thermal stability) (HLA-A3 [3]): 37 oC
half-life of peptide/HLA-A3 complex (HLA-A3 [4]; 37 °C (b252/b262 context), quoted in peer review): 4.8 min
half-life, peptide dissociation (HLA-A3 [4]; HLA-A3, 37 °C, fluorescence anisotropy): 4.82 min
T cell responses (T cells): no responses were seen
TNFα, absolute frequency [5]: 2.4
TNFα, absolute frequency [6]: 4.823
CD107a, absolute frequency ([7]; peptide 0.001 ug/mL): 1.367
CD107a, absolute frequency ([7]; peptide 0.01 ug/mL): 3.473
CD107a, absolute frequency ([7]; peptide 0.1 ug/mL): 1.267
CD107a, absolute frequency ([7]; peptide 1 ug/mL): 1.09
CD107a, absolute frequency ([7]; peptide 10 ug/mL): 1.843
CD107a, absolute frequency ([7]; peptide 1.00E-05 ug/mL): 1.503
stimulation (CD107a) ([7]; TCR4 T cells, peptide concentrations as high as 10 μM): no stimulation was evident
